Measurements published in patent US20230047905A1, “COMPOUNDS AND COMPOSITIONS FOR TREATING CONDITIONS ASSOCIATED WITH STING ACTIVITY” (IFM Due, Inc., priority 2018, published 2023).

Tested on: Human STING
Assay: STING reporter assay (luciferase) in THP1-Dual KO-IFNAR2 cells activated with 2'3'cGAMP
Assay type: cell-based
Conditions: 15 μM 2'3'cGAMP
Procedure: STING Pathway Modulation by the Compounds Described Herein was Measured Using THP1-Dual™ Cells (KO-IFNAR2).
THP1-Dual™ KO-IFNAR2 Cells (obtained from invivogen) were maintained in RPMI, 10% FCS, 5 ml P/S, 2 mM L-glut, 10 mM Hepes, and 1 mM sodium pyruvate. Compounds were spotted in empty 384 well tissue culture plates (Greiner 781182) by Echo for a final concentration of 0.0017-100 μM. Cells were plated into the TC plates at […], 2×10E6 cells/mL. For activation with STING ligand, 2′3′cGAMP (MW 718.38, obtained from Invivogen), was prepared in Optimem media.
The following solutions were prepared for each 1×384 plate: • Solution A: 2 mL Optimem with one of the following stimuli: • 60 uL of 10 mM 2′3′cGAMP ->150 μM stock • Solution B: 2 mL Optimem with 60 μL Lipofectamine 2000->Incubate 5 min at RT
2 mL of solution A and 2 ml Solution B was mixed and incubated for 20 min at room temperature (RT). 20 μL of transfection solution (A+B) was added on top of the plated cells, with a final 2′3′cGAMP concentration of 15 μM. The plates were then centrifuged immediately at 340 g for 1 minute, after which they were incubated at 37° C., 5% CO2, >98% humidity for 24h. Luciferase reporter activity was then measured. EC50 values were calculated by using standard methods known in the art.
Luciferase reporter assay: 10 μL of supernatant from the assay was transferred to white 384-plate with flat bottom and squared wells. One pouch of QUANTI-Luc™ Plus was dissolved in 25 mL of water. 100 μL of QLC Stabilizer per 25 mL of QUANTI-Luc™ Plus solution was added. 50 μL of QUANTI-Luc™ Plus/QLC solution per well was then added. Luminescence was measured on a Platereader (e.g., Spectramax I3X (Molecular Devices GF3637001)).
Luciferase reporter activity was then measured. EC50 or IC50 values were calculated by using standard methods known in the art.

[1] = Homo sapiens, THP1-Dual, 24 h, class symbols
[2] = Homo sapiens, THP1-Dual, 24 h, given as numeric bound

| SMILES | IC50 [1] | further results |
| --- | --- | --- |
| NS(=O)(=Nc1c[nH]c2ccccc12)c1ccc(F)cc1 (racemic) [Compound 108a] | 5 to 100 µM |  |
| NS(=O)(=Nc1c[nH]c2ncc(F)cc12)c1ccc(C(F)(F)F)cc1 (stereo not drawn) [Compound 117] | 5 to 100 µM |  |
| CN(C)S(=O)(=Nc1c[nH]c2ccccc12)c1ccc(C(F)(F)F)cc1 (stereo not drawn) [Compound 36, N′-(1H-indol-3-yl)-N,N-dimethyl-4-(trifluoromethyl)benzenesulfonimidamide] | 5 to 100 µM |  |
| Cc1cccc(S(N)(=O)=Nc2c[nH]c3ccccc23)c1 (stereo not drawn) [Compound 106] | 5 to 100 µM |  |
| N#Cc1cnc2[nH]cc(N=S(N)(=O)c3ccc(C(F)(F)F)cc3)c2c1 (racemic) [Compound 114a] | 5 to 100 µM |  |
| N#Cc1ccc2[nH]cc(N=S(N)(=O)c3ccc(C4CC4)cc3)c2c1 (racemic) [Compound 115a] | 5 to 100 µM |  |
| NS(=O)(=Nc1c[nH]c2cc(F)c(F)cc12)c1ccc(C(F)(F)F)cc1 (racemic) [Compound 2b] |  | IC50 (24h, class symbols): 1 to 5 µM |
| CCCCc1ccc(S(=N)(=O)Nc2ccc3[nH]ccc3c2)cc1 (stereo not drawn) [Compound 53] | 5 to 100 µM |  |
| N[S@](=O)(=Nc1c[nH]c2ccccc12)c1ccc(C(F)(F)F)cc1 (single isomer, unassigned) [Compound 1a, (S or R)—N-(1H-indol-3-yl)-4-(trifluoromethyl)benzenesulfonimidamide] | 1 to 5 µM |  |
| NS(=O)(=Nc1c[nH]c2ncc(F)cc12)c1ccc(C(F)(F)F)cc1 (racemic) [Compound 117a] | 5 to 100 µM |  |
| Cc1ccc(S(N)(=O)=Nc2c[nH]c3ccccc23)cc1 (stereo not drawn) [Compound 111] | 5 to 100 µM |  |
| CNS(=O)(=Nc1c[nH]c2ccccc12)c1ccc(C(F)(F)F)cc1 (stereo not drawn) [Compound 112, N′-(1H-indol-3-yl)-N-methyl-4-(trifluoromethyl)benzenesulfonimidamide] | 5 to 100 µM |  |
| Cc1ccccc1S(N)(=O)=Nc1c[nH]c2ccccc12 (racemic) [Compound 110b] |  | IC50 (24h, class symbols): 1 to 5 µM |
| N#Cc1cnc2[nH]cc(N=S(N)(=O)c3ccc(C(F)(F)F)cc3)c2c1 (racemic) [Compound 114b] |  | IC50 [2]: ≥ 100 µM |
| Cc1ccc(S(N)(=O)=Nc2c[nH]c3ccccc23)cc1 (racemic) [Compound 111a] |  | IC50 (24h, class symbols): 1 to 5 µM |
| CNS(=O)(=Nc1cn(C)c2ccccc12)c1ccc(C(F)(F)F)cc1 (stereo not drawn) [Compound 105, N-methyl-N′-(1-methyl-1H-indol-3-yl)-4-(trifluoromethyl)benzenesulfonimidamide] | 5 to 100 µM |  |
| NS(=O)(=Nc1c[nH]c2ccccc12)c1ccc(Cl)cc1 (racemic) [Compound 109a] | 1 to 5 µM |  |
| COC(=O)NS(=O)(=Nc1c[nH]c2ccccc12)c1ccc(C(F)(F)F)cc1 (stereo not drawn) [Compound 107, methyl (N-(1H-indol-3-yl)-4-(trifluoromethyl)phenylsulfonimidoyl)carbamate] | 5 to 100 µM |  |
| CCCCc1ccc(S(N)(=O)=Nc2c[nH]c3ncc(F)cc23)cc1 (racemic) [Compound 116] | 5 to 100 µM |  |
| NS(=O)(=Nc1c[nH]c2ccccc12)c1ccc(Cl)cc1 (stereo not drawn) [Compound 109] | 1 to 5 µM |  |

| SMILES | IC50 [1] | further results |
| --- | --- | --- |
| NS(=O)(=Nc1c[nH]c2cc(F)c(F)cc12)c1ccc(C(F)(F)F)cc1 (racemic) [Compound 2a] |  | IC50 (24h, class symbols): 0.2 to 1 µM |
| CC(C)OC(=O)NS(=O)(=Nc1c[nH]c2ccccc12)c1ccc(C(F)(F)F)cc1 (stereo not drawn) [Compound 102] | 5 to 100 µM |  |
| CCOC(=O)NS(=O)(=Nc1c[nH]c2ccccc12)c1ccc(C(F)(F)F)cc1 (stereo not drawn) [Compound 103] | 5 to 100 µM |  |
| NS(=O)(=Nc1c[nH]nc1-c1ccccc1)c1ccc(C(F)(F)F)cc1 (racemic) [Compound 119a] |  | IC50 [2]: ≥ 100 µM |
| N[S@@](=O)(=Nc1c[nH]c2ccccc12)c1ccc(C(F)(F)F)cc1 (single isomer, unassigned) [Compound 1b, (R or S)—N-(1H-indol-3-yl)-4-(trifluoromethyl)benzenesulfonimidamide] | 0.2 to 1 µM |  |
| NS(=O)(=Nc1c[nH]nc1-c1ccccc1)c1ccc(C(F)(F)F)cc1 (stereo not drawn) [Compound 119] |  | IC50 [2]: ≥ 100 µM |
| Cc1ccccc1S(N)(=O)=Nc1c[nH]c2ccccc12 (stereo not drawn) [Compound 110] | 5 to 100 µM |  |
| N#Cc1cnc2[nH]cc(N=S(N)(=O)c3ccc(C(F)(F)F)cc3)c2c1 (stereo not drawn) [Compound 114] | 5 to 100 µM |  |
| NS(=O)(=Nc1c[nH]c2ccccc12)c1ccc(F)cc1 (stereo not drawn) [Compound 108] | 5 to 100 µM |  |
| Cc1ccccc1S(N)(=O)=Nc1c[nH]c2ccccc12 (racemic) [Compound 110a] |  | IC50 (24h, class symbols): 5 to 100 µM |
| NS(=O)(=Nc1c[nH]c2ccccc12)c1ccc(C(F)(F)F)cc1 (stereo not drawn) [Compound 1, N′-(1H-indol-3-yl)-4-(trifluoromethyl)benzenesulfonimidamide] | 0.2 to 1 µM |  |
| CS(=O)(=O)n1cc(N=S(N)(=O)c2ccc(C(F)(F)F)cc2)c2ccccc21 (stereo not drawn) [Compound 104] | 5 to 100 µM |  |
| Cc1ccc(S(N)(=O)=Nc2c[nH]c3ccccc23)cc1 (racemic) [Compound 111b] |  | IC50 (24h, class symbols): 5 to 100 µM |
| NS(=O)(=Nc1c[nH]c2cc(F)c(F)cc12)c1ccc(C(F)(F)F)cc1 (stereo not drawn) [Compound 2] | 1 to 5 µM |  |
| N#Cc1ccc2[nH]cc(N=S(N)(=O)c3ccc(C4CC4)cc3)c2c1 (stereo not drawn) [Compound 115] | 5 to 100 µM |  |
| CCCCc1ccc(S(=N)(=O)Nc2ccc3cc[nH]c3c2)cc1 (stereo not drawn) [Compound 101] | 5 to 100 µM |  |
| N#Cc1ccc2[nH]cc(N=S(N)(=O)c3ccc(C(F)(F)F)cc3)c2c1 (racemic) [Compound 5a] | 5 to 100 µM |  |
| CCCCc1ccc(S(N)(=O)=Nc2c[nH]nc2-c2ccccc2)cc1 (stereo not drawn) [Compound 113] | 5 to 100 µM |  |
| CCCCc1ccc(S(N)(=O)=Nc2c[nH]nc2-c2ccccc2)cc1 (racemic) [Compound 113a] | 5 to 100 µM |  |
